# Measurements reported in US4771130A, “Target-entrapped drugs” (priority 1984, dated 1988).
# What was measured:
# aldose reductase [1] = molecular target: T1, aldose reductase (Rattus norvegicus, UniProt P07943); experiment: X-ray induced irreversible inhibition of aldose reductase; type: biochemical
# Method: (§1) Lens aldose reductase used for test purposes was extracted and assayed by the technique reported by Hayman and Kinoshita (see J.Biol. Chem. 240, 877-882 (1965)). The extract was usually adjusted to pH 7.0 and lyophilized. This product is stable indefinitely in the cold and provides particularly reliable assay results since day to day rates are reproducible.
# X-ray irradiation was performed with a General Electric Maximum-100 type X-ray machine using the following settings: 100 kVp, 5 ma, 3 mm Al added, HUL=2.6 mm Al, calibrated output=175 R/min. at 15 cm. Two ml of solution with components at the same concentrations used in photolysis experiments were X-rayed in 50 mm diameter open petri dishes placed at 15.9 cm from the X-ray source. The dosages were varied from 5 to 100 Rads, requiring 1, 2, 3, 4, 34 and 51 seconds exposure, respectively.
# [2] = tested on: cataract formation in rats; experiment: Cataract formation in galactose-fed rats: light irradiated; type: in vivo, rat
# Method: Approximately 5-10 μl of Asub-Q (0.65 mM) dissolved in DMSO was injected into the aqueous humour of the right eye of each of three 75 g. rats. After 1 hour, when the drug had diffused into the lens, the rat was irradiated for 30 minutes in a Rayonet Photochemical Reactor. The rats were fed ad-libinum with a mix of 1:1 chow:galactose. The control eyes (left eye) developed detectable cataracts after 3 days.
# [3] = molecular target: T2, aldose reductase in a crude extract of rat lens (Rattus norvegicus, UniProt P07943); experiment: Reversible inhibition of aldose reductase (Ki and type of inhibition); type: biochemical
# T2 construct: aldose reductase in a crude extract of rat lens; from tissue; host or cells: rat lens (crude extract, usually lyophilized)
# Method: as §1
# The Ki and type of inhibition of aldose reductase by Asub-Q (0.274 mM) was determined at pH 6.3 in 0.1M phosphate buffer using a saturating concentration of NADPH (121 uM). The results are plotted in FIG. 6.
# [4] = tested on: cataract formation in rat lenses; experiment: Cataract formation in rat lenses in organ culture: X-ray irradiated; type: cell-based; conditions: 175 Rads X-rays, galactose, eight days
# Method: (§2) Organ culture was performed by a modification of the method of Kinoshita et al (see Biochem. Biophys. Acta 158, 472-475 (1968)) with a modified TC 199 medium using 50-75 gm Sprague-Dawly male rats, care being taken to avoid contamination of the system. Fresh rat lenses were treated with Asub-Q in the manner hereinafter described and incubated in the presence of fructose and in the presence of galactose, in order to determine the effect of the Asub-Q. The Asub-Q treatment involved the following:
# This experiment was similar to the photoirradiation experiment except that the lenses were irradiated with 175 Rads of X-rays in place of light. […] Lenses incubated with galactose would be completely opaque (V).
# [5] = tested on: cataract formation in rat lenses; experiment: Cataract formation in rat lenses in organ culture: light irradiated; type: cell-based
# Method: as §2
# (a) rat lenses were incubated in the dark in an incubation medium containing Asub-Q for two hours to permit the drug to diffuse into the lens;
# (b) the lenses were then placed into a fresh medium and irradiated for 10 minutes for complete inhibition of aldose reductase;
# (c) the lenses were then placed into a fresh medium for […] with four changes in medium in the first 24 hours to permit non-covalently bound drug to diffuse out; and
# (d) the lenses were then incubated in a medium containing fructose or galactose.
# In a typical experiment four groups of 20 lens, four to a Petri dish, were used. The first group was supplemented with fructose (30 mM); the second, with galactose (30 mM); the third, with fructose (30 mM) and treated with Asub-Q (0.145 mM); and the fourth, with galactose (30 mM) and treated with Asub-Q ([…]). The lens were photographed with color film on a red background and evaluated on a O to V scale with O assigned to a clear lens and V to a lens with a totally opaque cataract. The procedure for treatment and photolysis of the lens was described above.
# The number outside the parenthesis is the status of the lenses: O to V. The number inside the parenthesis is the number of the lenses.
# aldose reductase [6] = molecular target: T1, aldose reductase; experiment: Irreversible inhibition of aldose reductase induced by photoirradiation (350 nm); type: biochemical
# Method: as §1
# Photolysis of Asub-Q and aldose reductase was studied in the presence and absence of saturating substrate concentrations (0.274 mM glyceraldehyde, and 0.111 mM NADPH) in 0.1M phosphate buffer, pH 6.3. Photolysis was performed in 3 ml quartz spectrophotometer cuvettes in a Rayonet photochemical reactor with a 350 nm maxima light source. The enzyme was separated from the non-covalently bound inhibitor by passing the photolyzed solution through a Sephadex G-25 column as described above. The results are plotted in FIG. 7. […] The enzyme photolyzed with inhibitor in the presence or absence of substrate is 80% inhibited after 10 minutes.
# [7] = pH 6.3, 0.1M phosphate buffer, NADPH 121 uM
substance,measurement,setting,value
N-(2-nitro-4-azidophenyl) hexylenediamine-N-(2'-O-quercitrin) [Asub-Q],loss of enzyme activity,aldose reductase [1]; 20 Rads irradiation or above,approximately two thirds
same,irreversible inhibition of aldose reductase,aldose reductase [1]; mixture of Asub-Q and rat lens extract irradiated with X-rays,extensively irreversibly inhibited
same,cataract in treated right eyes,"[2]; 5-10 μl of 0.65 mM in aqueous humour, light 30 minutes, 1:1 chow:galactose, 7 days",no cataract was observed
same,"cataract formation, repeat experiment",[2]; repeated on thirty rats,equivalent results
same,Ki compared with quercitrin,[3]; crude extract of rat lens,very similar to quercitrin
same,Ki,[3]; [7],480 nM
same,type of inhibition,[3]; [7],noncompetitive inhibitor
same,reversible inhibitor activity compared with quercitrin,[3]; summary statement,about the same as quercitrin
same,reversible inhibition of aldose reductase,[3]; without photolysis,reversibly inhibits aldose reductase
same,number of lenses per cataract status,[4],5 clear lenses (O) and 6 with a slight cataract (I)
same,cataract progression vs fructose control,[5]; day 35,not nearly as advanced
same,lens clarity,"[5]; lenses containing Asub-Q, after three days",remained clear
same,resistance to cataract formation vs fructose control lenses,"[5]; overall, organ culture",at least as impervious to cataract formation as control lenses that were incubated with fructose
same,inhibition of enzyme photolyzed with inhibitor,"aldose reductase [6]; 10 minutes photolysis, 350 nm, in presence or absence of substrate, pH 6.3",80%
same,type of inhibition after irradiation (kinetic analysis),"aldose reductase [6]; light maximum at 350 nm, chromatographic removal of small molecules",both specific irreversible inhibition and non-specifically bound reversible (soluble immobilized inhibitor) inhibition occur
same,irreversible inhibition,"aldose reductase [6]; one minute photolysis, 350 nm",roughly 40%
same,irreversible inhibition on irradiation,"aldose reductase [6]; photo- or X-ray irradiation, summary statement",photo- or X-ray sensitive irreversible affinity inhibitor for aldose reductase
